Experimental data as given in ChEMBL document CHEMBL3885861, “Open TG-GATES”.

Species on record: Rattus norvegicus
Assay: Open TG-GATES - Regimen: Single
Assay type: toxicity, organism-based, Sprague-Dawley
Parameters: regimen Single, gender Male, age 6 weeks
Conditions: in vivo, po, 40 mg/kg, route gavage, dose level Low; for APTT / Bas / Eos / Fbg / Hb / Ht / Lym / MCH / MCHC / MCV / Mono / Neu / PT / Plat / RBC / Ret / WBC: tissue Blood; for KIDNEY_L / KIDNEY_R / KIDNEY_TOTAL: tissue Kidney; for LIVER: tissue Liver; for A/G / ALP / ALT / AST / BUN / CRE / Ca / Cl / DBIL / GLC / IP / K / LDH / Na / PL / RALB / TBIL / TC / TG / TP / gamma-GTP: tissue Plasma

Structure (SMILES): Cc1cccc(C)c1OCC(C)N (configuration not stated) [MEXILETINE]
- TERMINAL_BW (3 h): 218.4 g
- APTT (3 h): 20.9 s
- Bas (3 h): 0%
- Eos (3 h): 0.4%
- Fbg (3 h): 302.8 mg/dL
- Hb (3 h): 13.1 g/dL
- Ht (3 h): 40.8%
- Lym (3 h): 80.4%
- MCH (3 h): 20.6 pg
- MCHC (3 h): 32.1%
- MCV (3 h): 64.2 fL
- Mono (3 h): 2.2%
- Neu (3 h): 16%
- PT (3 h): 15.9 s
- Plat (3 h): 119 x10_4/uL
- RBC (3 h): 634.2 x10_4/ul
- Ret (3 h): 7.8%
- WBC (3 h): 92.2 x10_2/uL
- KIDNEY_L (3 h): 1 g
- KIDNEY_R (3 h): 1 g
- KIDNEY_TOTAL (3 h): 1.9 g
- LIVER (3 h): 10.2 g
- A/G (3 h): 1.2
- ALP (3 h): 1641.6 IU/L
- ALT (3 h): 51 IU/L
- AST (3 h): 79.6 IU/L
- BUN (3 h): 13.6 mg/dL
- CRE (3 h): 0.2 mg/dL
- Ca (3 h): 10.7 mg/dL
- Cl (3 h): 105.6 meq/L
- DBIL (3 h): 0 mg/dL
- GLC (3 h): 188.8 mg/dL
- IP (3 h): 8.8 mg/dL
- K (3 h): 4 meq/L
- LDH (3 h): 207.4 IU/L
- Na (3 h): 142.4 meq/L
- PL (3 h): 149.2 mg/dL
- RALB (3 h): 3 g/dL
- TBIL (3 h): 0.01 mg/dL
- TC (3 h): 84.4 mg/dL
- TG (3 h): 67.6 mg/dL
- TP (3 h): 5.5 g/dL
- gamma-GTP (3 h): 1.2 IU/L
- TERMINAL_BW (6 h): 214 g
- APTT (6 h): 23.3 s
- Bas (6 h): 0%
- Eos (6 h): 0.8%
- Fbg (6 h): 314 mg/dL
- Hb (6 h): 13.5 g/dL
- Ht (6 h): 40.8%
- Lym (6 h): 83.6%
- MCH (6 h): 20.9 pg
- MCHC (6 h): 33.2%
- MCV (6 h): 63 fL
- Mono (6 h): 2.6%
- Neu (6 h): 11.4%
- PT (6 h): 16 s
- Plat (6 h): 118.1 x10_4/uL
- RBC (6 h): 647.4 x10_4/ul
- Ret (6 h): 7.2%
- WBC (6 h): 88.1 x10_2/uL
- KIDNEY_L (6 h): 0.9 g
- KIDNEY_R (6 h): 0.9 g
- KIDNEY_TOTAL (6 h): 1.8 g
- LIVER (6 h): 9.2 g
- A/G (6 h): 1.2
- ALP (6 h): 1364.6 IU/L
- ALT (6 h): 43 IU/L
- AST (6 h): 72.8 IU/L
- BUN (6 h): 10.4 mg/dL
- CRE (6 h): 0.2 mg/dL
- Ca (6 h): 10.6 mg/dL
- Cl (6 h): 105.6 meq/L
- DBIL (6 h): 0 mg/dL
- GLC (6 h): 180.8 mg/dL
- IP (6 h): 8.5 mg/dL
- K (6 h): 4.2 meq/L
- LDH (6 h): 153.4 IU/L
- Na (6 h): 141 meq/L
- PL (6 h): 128.8 mg/dL
- RALB (6 h): 3 g/dL
- TBIL (6 h): 0.022 mg/dL
- TC (6 h): 69 mg/dL
- TG (6 h): 68 mg/dL
- TP (6 h): 5.5 g/dL
- gamma-GTP (6 h): 1.4 IU/L
- TERMINAL_BW (9 h): 217.2 g
- APTT (9 h): 22.4 s
- Bas (9 h): 0%
- Eos (9 h): 0.6%
- Fbg (9 h): 293.8 mg/dL
- Hb (9 h): 12.7 g/dL
- Ht (9 h): 39.7%
- Lym (9 h): 73.6%
- MCH (9 h): 20.3 pg
- MCHC (9 h): 32%
- MCV (9 h): 63.6 fL
- Mono (9 h): 2.6%
- Neu (9 h): 22%
- PT (9 h): 16.2 s
- Plat (9 h): 106.8 x10_4/uL
- RBC (9 h): 624.6 x10_4/ul
- Ret (9 h): 8.1%
- WBC (9 h): 122.3 x10_2/uL
- KIDNEY_L (9 h): 0.9 g
- KIDNEY_R (9 h): 0.9 g
- KIDNEY_TOTAL (9 h): 1.9 g
- LIVER (9 h): 9.3 g
- A/G (9 h): 1.2
- ALP (9 h): 1650.8 IU/L
- ALT (9 h): 40.2 IU/L
- AST (9 h): 65.2 IU/L
- BUN (9 h): 11.6 mg/dL
- CRE (9 h): 0.2 mg/dL
- Ca (9 h): 10.4 mg/dL
- Cl (9 h): 106.2 meq/L
- DBIL (9 h): 0.002 mg/dL
- GLC (9 h): 192.2 mg/dL
- IP (9 h): 9.6 mg/dL
- K (9 h): 4.2 meq/L
- LDH (9 h): 127.2 IU/L
- Na (9 h): 140.6 meq/L
- PL (9 h): 129.6 mg/dL
- RALB (9 h): 3 g/dL
- TBIL (9 h): 0.022 mg/dL
- TC (9 h): 71.4 mg/dL
- TG (9 h): 77 mg/dL
- TP (9 h): 5.5 g/dL
- gamma-GTP (9 h): 1.2 IU/L
- TERMINAL_BW (24 h): 232.2 g
- APTT (24 h): 20.7 s
- Bas (24 h): 0%
- Eos (24 h): 1.4%
- Fbg (24 h): 297.2 mg/dL
- Hb (24 h): 12.3 g/dL
- Ht (24 h): 38.5%
- Lym (24 h): 80.2%
- MCH (24 h): 19.9 pg
- MCHC (24 h): 31.9%
- MCV (24 h): 62.6 fL
- Mono (24 h): 2.6%
- Neu (24 h): 16%
- PT (24 h): 16.5 s
- Plat (24 h): 114.4 x10_4/uL
- RBC (24 h): 616.2 x10_4/ul
- Ret (24 h): 7.5%
- WBC (24 h): 87.8 x10_2/uL
- KIDNEY_L (24 h): 1 g
- KIDNEY_R (24 h): 1 g
- KIDNEY_TOTAL (24 h): 2 g
- LIVER (24 h): 10.5 g
- A/G (24 h): 1.2
- ALP (24 h): 1448.8 IU/L
- ALT (24 h): 44.6 IU/L
- AST (24 h): 73.4 IU/L
- BUN (24 h): 15.8 mg/dL
- CRE (24 h): 0.2 mg/dL
- Ca (24 h): 10.8 mg/dL
- Cl (24 h): 105.6 meq/L
- DBIL (24 h): 0 mg/dL
- GLC (24 h): 184.2 mg/dL
- IP (24 h): 7.6 mg/dL
- K (24 h): 4.1 meq/L
- LDH (24 h): 158.6 IU/L
- Na (24 h): 141.8 meq/L
- PL (24 h): 140 mg/dL
- RALB (24 h): 3.1 g/dL
- TBIL (24 h): 0.01 mg/dL
- TC (24 h): 79 mg/dL
- TG (24 h): 89.8 mg/dL
- TP (24 h): 5.5 g/dL
- gamma-GTP (24 h): 1.6 IU/L
